How the values were obtained:
Format in all cases: in vivo
[1] = system: Paddy rice (Oryza sp.); assay: Example E: test in sown rice (Brazil), damage to rice; conditions: fentrazamide 250 EC 300 g a.i./ha; spray at BBCH 23 stage of the rice, 29 days after sowing; scored 2 weeks after application; outdoor test Brazil 1999
From the text: (§1) To prepare a spray preparation, the active compound preparations are mixed with water. The concentration is adjusted so that the application rate corresponds to 200 l of water/ha.
(§2) Rice seeds are sown in test plots (2 m×5 m) in rice paddies. 29 days after sowing (during the BBCH 23 development stage of the rice; begin of stocking), the spray preparation is applied to the test areas (using a hand-operated sprayer). A few days after the treatment, the soil is flooded to a water depth of 5 cm; the standing water levels are kept constant.
(§3) 2 weeks after the active compound application, the degree of damage to the rice plants and the herbicidal effect on the emerged weeds Echinochloa crus-galli and Brachiaria plantaginea is scored visually in percent in comparison to an untreated control.
(§4) The figures denote: • 0%=no action/damage (like untreated control) • 100%=total destruction

[2] = system: Paddy rice (Oryza sp.); assay: Example C: test in sown rice (Brazil), damage to rice; conditions: fentrazamide 250 EC 300 g a.i./ha; spray at BBCH 23 stage of the rice, 29 days after sowing; scored 2 weeks after application; outdoor test Brazil 1999
From the text: as §1, §2, §3, §4

[3] = system: Echinochloa crus-galli; assay: Example E: test in sown rice (Brazil), herbicidal effect; conditions: fentrazamide 250 EC 300 g a.i./ha; spray at BBCH 23 stage of the rice, 29 days after sowing; scored 2 weeks after application; outdoor test Brazil 1999
From the text: as §1, §2, §3, §4

[4] = system: Brachiaria plantaginea; assay: as above; conditions: fentrazamide 250 EC 300 g a.i./ha; spray at BBCH 23 stage of the rice, 29 days after sowing; scored 2 weeks after application; outdoor test Brazil 1999
From the text: as §1, §2, §3, §4

[5] = system: Eleusine indica; assay: Example F: test in sown rice (Brazil), herbicidal effect; conditions: fentrazamide 250 EC 300 g a.i./ha; spray at BBCH 12 stage of the rice (2-leaf-stage), 18 days after sowing; scored 3 weeks after application; outdoor test Brazil 1999
From the text: as §1
(§5) Rice seeds are sown in test plots (2 m×5 m) in rice paddies. 18 days after sowing (during the BBCH 12 development stage of the rice; corresponds to the 2-leaf-stage), the spray preparation is applied to the test areas (using a hand-operated sprayer).
(§6) 3 weeks after the active compound application, the degree of damage to the rice plants and the herbicidal effect on the emerged weeds Acanthospermum hispidum, Commelina benghalensis, Digitaria sanguinalis and Eleusine indica is scored visually in percent in comparison to an untreated control.
as §4

[6] = system: Commelina benghalensis; assay: as above; conditions: fentrazamide 250 EC 300 g a.i./ha; spray at BBCH 12 stage of the rice (2-leaf-stage), 18 days after sowing; scored 3 weeks after application; outdoor test Brazil 1999
From the text: as §1, §5, §6, §4

[7] = system: Acanthospermum hispidum; assay: as above; conditions: fentrazamide 250 EC 300 g a.i./ha; spray at BBCH 12 stage of the rice (2-leaf-stage), 18 days after sowing; scored 3 weeks after application; outdoor test Brazil 1999
From the text: as §1, §5, §6, §4

[8] = system: Digitaria sanguinalis; assay: as above; conditions: fentrazamide 250 EC 300 g a.i./ha; spray at BBCH 12 stage of the rice (2-leaf-stage), 18 days after sowing; scored 3 weeks after application; outdoor test Brazil 1999
From the text: as §1, §5, §6, §4

[9] = system: Echinochloa crus-galli; assay: Example C: test in sown rice (Brazil), herbicidal effect; conditions: fentrazamide 250 EC 300 g a.i./ha; spray at BBCH 23 stage of the rice, 29 days after sowing; scored 2 weeks after application; outdoor test Brazil 1999
From the text: as §1, §2, §3, §4

[10] = system: Brachiaria plantaginea; assay: as above; conditions: fentrazamide 250 EC 300 g a.i./ha; spray at BBCH 23 stage of the rice, 29 days after sowing; scored 2 weeks after application; outdoor test Brazil 1999
From the text: as §1, §2, §3, §4

[11] = system: Echinochloa crus-galli; assay: Example I: test in sown rice (Thailand), herbicidal effect; conditions: fentrazamide 50 WP 135 g a.i./ha; spray 7 days after sowing (2-leaf-stage); scored 3 weeks after application; outdoor test Thailand 1999
From the text: as §1
(§7) Rice seeds are sown in test plots (2.5 m×2.5 m) in rice paddies. 7 days after sowing (2-leaf-stage of the rice), the spray preparation is applied to the test areas (using a hand-operated sprayer). 2 days after the treatment, the soil is flooded to a water depth of 5 cm; the standing water levels are kept constant.
(§8) 3 weeks after the active compound application, the degree of damage to the rice plants and the herbicidal effect on the emerged weeds Echinochloa crus-galli is scored visually in percent in comparison to an untreated control.
as §4

[12] = system: Paddy rice (Oryza sp.); assay: Example D: test in sown rice (Brazil), damage to rice; conditions: fentrazamide 250 EC 300 g a.i./ha; spray at BBCH 23 stage of the rice, 29 days after sowing; scored 2 weeks after application; outdoor test Brazil 1999
From the text: as §1, §2, §3, §4

[13] = system: Paddy rice (Oryza sp.); assay: Example A: test in sown rice (Brazil), damage to rice; conditions: fentrazamide 250 EC 400 g a.i./ha; spray at 1-2-leaf stage of the rice, 10 days after sowing; scored 3 weeks after application; outdoor test Brazil 1999
From the text: as §1
(§9) Rice seeds are sown in test plots (2 m×5 m) in rice paddies. 10 days after sowing (when the rice has reached the 1-2-leaf stage), the spray preparation is applied to the test areas (using a hand-operated sprayer). 1 month after the treatment, the soil is flooded to a water depth of 5 cm; the standing water levels are kept constant.
(§10) 3 weeks after the active compound application, the degree of damage to the rice plants and the herbicidal effect on the emerged weeds of the species Aeschynomene rudis is scored visually in percent in comparison to an untreated control.
as §4

[14] = system: Paddy rice (Oryza sp.); assay: Example I: test in sown rice (Thailand), damage to rice; conditions: fentrazamide 50 WP 135 g a.i./ha; spray 7 days after sowing (2-leaf-stage); scored 3 weeks after application; outdoor test Thailand 1999
From the text: as §1, §7, §8, §4

[15] = system: Paddy rice (Oryza sp.); assay: Example H: test in sown rice (Thailand), damage to rice; conditions: fentrazamide 50 WP 135 g a.i./ha; spray 7 days after sowing (2-leaf-stage); scored 8 weeks after application; outdoor test Thailand 1999
From the text: as §1, §7
(§11) 8 weeks after the active compound application, the degree of damage to the rice plants and the herbicidal effect on the emerged weeds Echinochloa crus-galli and Leptochloa chinensis is scored visually in percent in comparison to an untreated control.
as §4

[16] = system: Paddy rice (Oryza sp.); assay: Example B: test in sown rice (Brazil), damage to rice; conditions: fentrazamide 250 EC 300 g a.i./ha; spray at BBCH 23 stage of the rice, 29 days after sowing; scored 2 weeks after application; outdoor test Brazil 1999
From the text: as §1, §2, §3, §4

[17] = system: Mountain rice (Oryza sp.); assay: Example F: test in sown rice (Brazil), damage to rice; conditions: fentrazamide 250 EC 300 g a.i./ha; spray at BBCH 12 stage of the rice (2-leaf-stage), 18 days after sowing; scored 3 weeks after application; outdoor test Brazil 1999
From the text: as §1, §5, §6, §4

[18] = system: Aeschynomene rudis; assay: Example A: test in sown rice (Brazil), herbicidal effect; conditions: fentrazamide 250 EC 400 g a.i./ha; spray at 1-2-leaf stage of the rice, 10 days after sowing; scored 3 weeks after application; outdoor test Brazil 1999
From the text: as §1, §9, §10, §4

[19] = system: Echinochloa crus-galli; assay: Example D: test in sown rice (Brazil), herbicidal effect; conditions: fentrazamide 250 EC 300 g a.i./ha; spray at BBCH 23 stage of the rice, 29 days after sowing; scored 2 weeks after application; outdoor test Brazil 1999
From the text: as §1, §2, §3, §4

[20] = system: Brachiaria plantaginea; assay: as above; conditions: fentrazamide 250 EC 300 g a.i./ha; spray at BBCH 23 stage of the rice, 29 days after sowing; scored 2 weeks after application; outdoor test Brazil 1999
From the text: as §1, §2, §3, §4

[21] = system: Echinochloa crus-galli; assay: Example B: test in sown rice (Brazil), herbicidal effect; conditions: fentrazamide 250 EC 300 g a.i./ha; spray at BBCH 23 stage of the rice, 29 days after sowing; scored 2 weeks after application; outdoor test Brazil 1999
From the text: as §1, §2, §3, §4

[22] = system: Brachiaria plantaginea; assay: as above; conditions: fentrazamide 250 EC 300 g a.i./ha; spray at BBCH 23 stage of the rice, 29 days after sowing; scored 2 weeks after application; outdoor test Brazil 1999
From the text: as §1, §2, §3, §4

[23] = system: Echinochloa crus-galli; assay: Example G: test in sown rice (Philippines), herbicidal effect; conditions: fentrazamide 50 WP 135 g a.i./ha; spray 11 days after sowing (4-leaf-stage); scored 8 weeks after application; outdoor test Philippines 1999
From the text: as §1
(§12) Rice seeds are sown in test plots (2.5 m×2.5 m) in rice paddies. 11 days after sowing (4-leaf-stage of the rice), the spray preparation is applied to the test areas (using a hand-operated sprayer). 1 day after the treatment, the soil is flooded to a water depth of 5 cm; the standing water levels are kept constant.
(§13) 8 weeks after the active compound application, the degree of damage to the rice plants and the herbicidal effect on the emerged weeds of the species Echinochloa crus-galli is scored visually in percent in comparison to an untreated control.
as §4

[24] = system: Paddy rice (Oryza sp.); assay: Example G: test in sown rice (Philippines), damage to rice; conditions: fentrazamide 50 WP 135 g a.i./ha; spray 11 days after sowing (4-leaf-stage); scored 8 weeks after application; outdoor test Philippines 1999
From the text: as §1, §12, §13, §4

[25] = system: Echinochloa crus-galli; assay: Example H: test in sown rice (Thailand), herbicidal effect; conditions: fentrazamide 50 WP 135 g a.i./ha; spray 7 days after sowing (2-leaf-stage); scored 8 weeks after application; outdoor test Thailand 1999
From the text: as §1, §7, §11, §4

[26] = system: Leptochloa chinensis; assay: as above; conditions: fentrazamide 50 WP 135 g a.i./ha; spray 7 days after sowing (2-leaf-stage); scored 8 weeks after application; outdoor test Thailand 1999
From the text: as §1, §7, §11, §4

CCN(C(=O)n1nnn(-c2ccccc2Cl)c1=O)C1CCCCC1 [(A), 4-(2-chlorophenyl)-N-cyclohexyl-N-ethyl-4,5-dihydro-5-oxo-1H-tetrazole-1-carboxamide]
Damage or action in % Paddy rice (Oryza sp.) found [1]: 0%
Damage or action in % Paddy rice (Oryza sp.) found [2]: 0%
Damage or action in % Echinochloa crus-galli found [3]: 35%
Damage or action in % Brachiaria plantaginea found [4]: 10%
Damage or action in % Eleusine indica found [5]: 50%
Damage or action in % Commelina Bengha-lensis found [6]: 50%
Damage or action in % Acantho-spermum hispidum found [7]: 50%
Damage or action in % Digitaria Sanguina-lis found [8]: 50%
Damage or action in % Echinochloa crus-galli found [9]: 35%
Damage or action in % Brachiaria plantaginea found [10]: 10%
Damage or action in % Echinochloa crus-galli found [11]: 58%
Damage or action in % Paddy rice (Oryza sp.) found [12]: 0%
Damage or action in % Paddy rice (Oryza sp.) found [13]: 0%
Damage or action in % Paddy rice (Oryza sp.) found [14]: 2%
Damage or action in % Paddy rice (Oryza sp.) found [15]: 3%
Damage or action in % Paddy rice (Oryza sp.) found [16]: 0%
Damage or action in % Mountain rice (Oryza sp.) found [17]: 0%
Damage or action in % Aeschynomene rudis found [18]: 30%
Damage or action in % Echinochloa crus-galli found [19]: 35%
Damage or action in % Brachiaria plantaginea found [20]: 10%
Damage or action in % Echinochloa crus-galli found [21]: 35%
Damage or action in % Brachiaria plantaginea found [22]: 10%
Damage or action in % Echinochloa crus-galli found [23]: 78%
Damage or action in % Paddy rice (Oryza sp.) found [24]: 0%
Damage or action in % Echinochloa crus-galli found [25]: 47%
Damage or action in % Leptochloa chinensis found [26]: 38%

From patent US7202196B2, “Selective herbicide comprising a tetrazolinone derivative” (Bayer Cropscience AG, priority 2001, dated 2007)
